Assay results as given in ChEMBL document CHEMBL1201862, “PubChem BioAssay data set” (2004).
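These data come from cells grown in 96-well plates and exposed to compound for 48 hours at five concentrations. GI50 = concentration required for 50% inhibition of growth.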 Activity calls are given as the source filed them. Rule as the data show it: active = GI50 up to about 1.1 µM and inactive = higher.

Assays:
Test in all cases: DTP human tumour cell line panel, 48 h
NCI-H226 = tested on: NCI-H226
Hs-578T = tested on: Hs-578T
SW-620 = tested on: SW-620
ACHN = tested on: ACHN
UACC-62 = tested on: UACC-62
SR = tested on: SR
HOP-92 = tested on: HOP-92
TK-10 = tested on: TK-10
EKVX = tested on: EKVX
CCRF-CEM = tested on: CCRF-CEM
OVCAR-8 = tested on: OVCAR-8
NCI-H522 = tested on: NCI-H522
NCI-H460 = tested on: NCI-H460
SF-295 = tested on: SF-295
RXF 393 = tested on: RXF 393
KM12 = tested on: KM12
HOP-62 = tested on: HOP-62
OVCAR-3 = tested on: OVCAR-3
SK-OV-3 = tested on: SK-OV-3
DU-145 = tested on: DU-145
PC-3 = tested on: PC-3
HCC 2998 = tested on: HCC 2998
RPMI-8226 = tested on: RPMI-8226
M14 = tested on: M14
SF-539 = tested on: SF-539
MDA-MB-435 = tested on: MDA-MB-435
Malme-3M = tested on: Malme-3M
NCI-H23 = tested on: NCI-H23
U-251 = tested on: U-251
A549 = tested on: A549
UO-31 = tested on: UO-31
A498 = tested on: A498
MDA-MB-231 = tested on: MDA-MB-231
LOX IMVI = tested on: LOX IMVI
CAKI-1 = tested on: CAKI-1
SNB-19 = tested on: SNB-19
IGROV-1 = tested on: IGROV-1
SN12C = tested on: SN12C
786-0 = tested on: 786-0
MOLT-4 = tested on: MOLT-4
NCI/ADR-RES = tested on: NCI/ADR-RES
T47D = tested on: T47D
SK-MEL-5 = tested on: SK-MEL-5
COLO 205 = tested on: COLO 205
SNB-75 = tested on: SNB-75
K562 = tested on: K562
MCF7 = tested on: MCF7
SF-268 = tested on: SF-268
OVCAR-4 = tested on: OVCAR-4
HL-60 = tested on: HL-60
HCT-15 = tested on: HCT-15
BT-549 = tested on: BT-549
SK-MEL-2 = tested on: SK-MEL-2
OVCAR-5 = tested on: OVCAR-5
HCT-116 = tested on: HCT-116
HT-29 = tested on: HT-29
UACC-257 = tested on: UACC-257

Q: How did the GI50 (NCI-H226) turn out when `Cc1ccc(S(=O)(=O)NNC(C[N+](=O)[O-])c2ccccc2)cc1` (configuration not stated) was run?
A: Its GI50 is 26.3 µM (inactive).

Q: And the GI50 (Hs-578T)?
A: Its GI50 is 44.4 µM (inactive).

Q: And the GI50 (SW-620)?
A: Its GI50 is 11.5 µM (inactive).

Q: And the GI50 (ACHN)?
A: The GI50 was 16.1 µM (inactive).

Q: And the GI50 (UACC-62)?
A: Its GI50 is 26.1 µM (inactive).

Q: What about the GI50 (SR) of the same compound?
A: Its GI50 is 1.06 µM (active).

Q: What about the GI50 (HOP-92) of the same compound?
A: The GI50 was 39.8 µM (inactive).

Q: And the GI50 (TK-10)?
A: Its GI50 is 24.2 µM (inactive).

Q: And the GI50 (EKVX)?
A: Its GI50 is 75.5 µM (inactive).

Q: And the GI50 (CCRF-CEM)?
A: Its GI50 is > 100 µM (inactive).

Q: And the GI50 (OVCAR-8)?
A: The GI50 was 22 µM (inactive).

Q: And the GI50 (NCI-H522)?
A: The GI50 was 23.4 µM (inactive).

Q: What about the GI50 (NCI-H460) of the same compound?
A: Its GI50 is 17.9 µM (inactive).

Q: And the GI50 (SF-295)?
A: The GI50 was 21.3 µM (inactive).

Q: What about the GI50 (RXF 393) of the same compound?
A: The GI50 was 2.94 µM (inactive).

Q: What about the GI50 (KM12) of the same compound?
A: Its GI50 is 14.1 µM (inactive).

Q: And the GI50 (HOP-62)?
A: Its GI50 is 26.7 µM (inactive).

Q: And the GI50 (OVCAR-3)?
A: The GI50 was 21.7 µM (inactive).

Q: What about the GI50 (SK-OV-3) of the same compound?
A: Its GI50 is 21.9 µM (inactive).

Q: What about the GI50 (DU-145) of the same compound?
A: The GI50 was 44.5 µM (inactive).

Q: And the GI50 (PC-3)?
A: The GI50 was 57.9 µM (inactive).

Q: What about the GI50 (HCC 2998) of the same compound?
A: The GI50 was 2.9 µM (inactive).

Q: What about the GI50 (RPMI-8226) of the same compound?
A: The GI50 was 3.56 µM (inactive).

Q: And the GI50 (M14)?
A: Its GI50 is 5.65 µM (inactive).

Q: What about the GI50 (SF-539) of the same compound?
A: The GI50 was 27.1 µM (inactive).

Q: And the GI50 (MDA-MB-435)?
A: Its GI50 is 2.91 µM (inactive).

Q: And the GI50 (Malme-3M)?
A: Its GI50 is 29 µM (inactive).

Q: And the GI50 (NCI-H23)?
A: The GI50 was 43 µM (inactive).

Q: And the GI50 (U-251)?
A: Its GI50 is 14.5 µM (inactive).

Q: What about the GI50 (A549) of the same compound?
A: Its GI50 is 16.7 µM (inactive).

Q: What about the GI50 (UO-31) of the same compound?
A: The GI50 was 22.3 µM (inactive).

Q: And the GI50 (A498)?
A: Its GI50 is 16.1 µM (inactive).

Q: And the GI50 (MDA-MB-231)?
A: Its GI50 is 28.4 µM (inactive).

Q: What about the GI50 (LOX IMVI) of the same compound?
A: Its GI50 is 3.64 µM (inactive).

Q: And the GI50 (CAKI-1)?
A: Its GI50 is 22.5 µM (inactive).

Q: What about the GI50 (SNB-19) of the same compound?
A: Its GI50 is 7.14 µM (inactive).

Q: What about the GI50 (IGROV-1) of the same compound?
A: The GI50 was 7.23 µM (inactive).

Q: And the GI50 (SN12C)?
A: Its GI50 is 32 µM (inactive).

Q: And the GI50 (786-0)?
A: The GI50 was 22.6 µM (inactive).

Q: What about the GI50 (MOLT-4) of the same compound?
A: Its GI50 is 3.56 µM (inactive).

Q: And the GI50 (NCI/ADR-RES)?
A: The GI50 was 54.6 µM (inactive).

Q: And the GI50 (T47D)?
A: The GI50 was 10.9 µM (inactive).

Q: What about the GI50 (SK-MEL-5) of the same compound?
A: The GI50 was 19.4 µM (inactive).

Q: And the GI50 (COLO 205)?
A: Its GI50 is 14.4 µM (inactive).

Q: What about the GI50 (SNB-75) of the same compound?
A: Its GI50 is 22.7 µM (inactive).

Q: And the GI50 (K562)?
A: Its GI50 is 0.787 µM (active).

Q: What about the GI50 (MCF7) of the same compound?
A: The GI50 was 3.88 µM (inactive).

Q: What about the GI50 (SF-268) of the same compound?
A: Its GI50 is 15.3 µM (inactive).

Q: And the GI50 (OVCAR-4)?
A: The GI50 was 15.8 µM (inactive).

Q: What about the GI50 (HL-60) of the same compound?
A: Its GI50 is 3.71 µM (inactive).

Q: And the GI50 (HCT-15)?
A: The GI50 was 15.9 µM.

Q: What about the GI50 (BT-549) of the same compound?
A: The GI50 was 15.6 µM (inactive).

Q: What about the GI50 (SK-MEL-2) of the same compound?
A: Its GI50 is 34.2 µM (inactive).

Q: What about the GI50 (OVCAR-5) of the same compound?
A: The GI50 was 44.8 µM (inactive).

Q: And the GI50 (HCT-116)?
A: Its GI50 is 4.14 µM (inactive).

Q: What about the GI50 (HT-29) of the same compound?
A: The GI50 was 2.02 µM (inactive).

Q: What about the GI50 (UACC-257) of the same compound?
A: The GI50 was 19.7 µM (inactive).
